Measurements taken from publication PMC11672292, “Discovery of Balasubramide Derivative with Tissue‐Specific Anti‐Inflammatory Activity Against Acute Lung Injury by Targeting VDAC1” (Advanced Science, 2024).

Columns and labels:
[1] = system: mice; test: Acute toxicity (LD50, sequential method), single intravenous injection; conditions: for Mortality: i.v.
From the text: To test the safety of (+)3C‐20 in mice, as previously reported,^[ [31] ^] we estimated the acute toxicity of (+)3C‐20 in mice using a sequential method.

[2] = system: LPS-stimulated RAW264.7 cells; test: LPS-induced TNF-α release in RAW264.7 macrophages (ELISA); assay type: cell-based, mouse; conditions: for IC50: read-out: IC50, inhibition of LPS-induced TNF-α release
Protocol: The anti‐inflammatory effects of all (+)‐balasubramide derivatives were evaluated in Lipopolysaccharide (LPS, L2630, Sigma–Aldrich, USA)‐induced macrophage inflammation model. RAW264.7 cells were pretreated with various compounds or (+)3C‐20 at different concentrations for 3 h, and then stimulated with LPS (100 ng mL^−1) for 2 h for the detection of pro‐inflammatory factors expressions. Similarly, following 3 h co‐incubation with (+)3C‐20, mouse BMDMs were stimulated with LPS (100 ng mL^−1) for 3 h. TNF‐α protein in the culture medium supernatant was measured by a commercial ELISA kit (#1 217 202, DAKEWE, China) following the manufacture's protocols.

[3] = system: RAW264.7 cells; test: CCK-8 cell viability assay; assay type: cell-based, mouse; conditions: 10 μM, 24 h
Protocol: Cell viability was determined by CCK‐8 assay. RAW264.7 cells or mouse BMDMs cultured in a 96‐well plate were pretreated with various compounds at 10 µM or different concentrations of (+)3C‐20 for 24 h when cells reached 70% confluence and then were treated with DMEM containing 5 µL CCK‐8 reagent (A311, Vazyme, China) in a humidified atmosphere of 5% CO2 and 95% air for 1 h at 37 °C. The UV absorption values of the medium with CCK‐8 were measured at 450 nm in a ThermoFisher plate‐reader (VL0L0TD2, Waltham, USA).

| Compound | Mortality ([1]; dosage 60.00 mg/kg) | Mortality ([1]; dosage 71.14 mg/kg) | Mortality ([1]; dosage 84.34 mg/kg) | Mortality ([1]; dosage 100.00 mg/kg) | LD50 ([1]; single intravenous injection) [mg/kg] | IC50 ([2]; RAW264.7 cells) [µM] | cell viability [3] | effect on the release of TNF-α ([2]; LPS-induced RAW 264.7 macrophage inflammation model) | inhibition at 10 µM ([2]; Mus musculus, 10 μM + LPS (100 ng/mL), RAW264.7 cells, n = 3, read-out: Inhibition rate (%) of TNF-α release) [%] |
| --- | --- | --- | --- | --- | --- | --- | --- | --- | --- |
| O=C(CC(CO)N1CCN(c2ccc(OC(F)(F)F)cc2)CC1)Nc1ccc(Cl)cc1 (stereo not shown) [VBIT-4] | 0 | 14.286 | 83.333 | 100 | 75.828 | 19.8 |  |  |  |
| CN1CCc2c([nH]c3ccccc23)C(c2ccccc2)C(O)C1=O (single isomer, unassigned; (+)) [(+)3J] |  |  |  |  |  |  | 95.09 ± 1.19 | a certain inhibitory effect | 19.1 ± 1.83 |
| O=C(O)CNC(=O)C1(Nc2ccccc2)CCN(Cc2cccc3ccccc23)CC1 [VBIT-12, reference compound] |  |  |  |  |  | 83.1 |  |  |  |
